In general, EC50 refers to the concentration needed to bring the measured effect to its halfway point. High values mean weaker potency, low ones greater potency. By CLint scaled is commonly meant the rate of metabolic loss divided by the concentration. Lower therefore signals greater metabolic stability. A word on the half-life: it is the time in which the quantity being followed falls by half. A high value points to slow decline.

The structures appear in SMILES notation. Read-outs that look alike come from different tables or passages of the source.

Consider four compounds from patent US20250136555A1 (HARBIN MEDISAN PHARMACEUTICAL CO., LTD., priority 2022, published 2025).

For series [1], the target named is T1, PPARα (Homo sapiens, UniProt Q07869).
T1 construct: expressed in transfected cells; host or cells: COS-7
T1 sequence (Q07869 239-466 limits assumed): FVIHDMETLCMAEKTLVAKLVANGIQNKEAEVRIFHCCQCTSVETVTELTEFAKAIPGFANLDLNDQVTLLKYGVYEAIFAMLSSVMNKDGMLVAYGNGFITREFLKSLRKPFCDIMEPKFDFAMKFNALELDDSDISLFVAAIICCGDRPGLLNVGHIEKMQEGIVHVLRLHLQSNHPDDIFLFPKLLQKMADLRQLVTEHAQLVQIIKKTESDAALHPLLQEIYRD
Nature of the series: GAL4 hybrid reporter gene method, PPARα agonistic activity. Type of series: cell-based. To be noted: Cos-7 cells, Gal4-PPARα (LBD); GW7647 10 nM = 100%; 16 h.

Series [2] has as its target T2, PPARδ (Homo sapiens, UniProt Q03181).
T2 construct: expressed in transfected cells; host or cells: COS-7
T2 sequence (Q03181 211-439 limits assumed): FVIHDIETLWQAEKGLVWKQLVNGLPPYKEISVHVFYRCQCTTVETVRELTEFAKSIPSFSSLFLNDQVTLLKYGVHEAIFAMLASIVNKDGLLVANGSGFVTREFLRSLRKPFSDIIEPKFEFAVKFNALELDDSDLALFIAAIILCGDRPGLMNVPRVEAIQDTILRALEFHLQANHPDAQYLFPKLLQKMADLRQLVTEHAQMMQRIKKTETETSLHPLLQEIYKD
Nature of the series: GAL4 hybrid reporter gene method, PPARδ agonistic activity. The format is cell-based.
Description: (§1) Cos-7 cells (African green monkey kidney fibroblasts, commonly used tool cells) were cultured in a 10-cm cell culture dish with a DMEM complete medium containing 10% fetal bovine serum. When growing at a density of about 70%, the cells were ready for transfection. […] The working solution described above was then combined with 8 mL of the DMEM complete medium, and the mixture was added to the cell culture dish for cell transfection. After 4 h of transfection, the cells were digested, resuspended, and seeded into a 96-well plate at 25,000 cells/well. […] 10 μL of a reporter gene detection solution (purchased from Shanghai Beyotime Biological Tech. Co., Ltd.) was added. After the resulting solution was mixed and reacted, biological fluorescence was detected by using a multifunctional microplate reader, and corresponding half maximal effective concentration (EC50) values were calculated according to the detection values. […] Transfection working solutions for different nuclear receptors were prepared and added into COS-7 cells. The preparation method for the transfection working solution was as follows: the constructed pBIND-Gal4-PPARα (LBD) (or pBIND-Gal4-PPARδ (LBD) plasmid or pBIND-Gal4-PPARγ (LBD) plasmid or pBIND-Gal4-RARα (LBD) plasmid or pBIND-Gal4-RARγ (LBD) plasmid or pBIND-Gal4-RARβ (LBD) plasmid or pBIND-Gal4-RORα (LBD) plasmid or pBIND-Gal4-RORγ (LBD) plasmid or pBIND-Gal4-RORβ (LBD) plasmid or pBIND-Gal4-FXR (LBD) plasmid or pBIND-Gal4-RXRα.

Series [3] concerns the target T3, PPARγ (Homo sapiens, UniProt P37231).
T3 construct: expressed in transfected cells; host or cells: COS-7
T3 sequence (P37231 238-503 limits assumed): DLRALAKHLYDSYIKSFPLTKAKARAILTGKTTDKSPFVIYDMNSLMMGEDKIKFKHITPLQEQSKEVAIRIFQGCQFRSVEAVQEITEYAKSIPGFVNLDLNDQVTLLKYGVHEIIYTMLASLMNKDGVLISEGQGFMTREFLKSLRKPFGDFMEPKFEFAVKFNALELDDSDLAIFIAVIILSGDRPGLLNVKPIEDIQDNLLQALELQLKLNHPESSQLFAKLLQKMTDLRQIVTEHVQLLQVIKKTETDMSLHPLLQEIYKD
Nature of the series: GAL4 hybrid reporter gene method, PPARγ agonistic activity. The format is cell-based.
Description: as §1

A short description of series [4]: Metabolic stability in human liver microsomes. The settings on record: human liver microsomes 0.75 mg/mL, NADPH. Type of series: in vitro ADME. The procedure: A solution of the compound in acetonitrile at a concentration of 500 μM was prepared and diluted in 0.1 M potassium phosphate solution to obtain a 1.5 μM drug working solution. The drug working solution was co-incubated with a human liver microsome working solution at a final concentration of 0.75 mg/mL and a NADPH solution (at a final concentration of 550 μM), and the incubation was terminated by adding an acetonitrile solution at 0 min, 15 min, 30 min, 45 min, and 60 min, respectively. The remaining amount of the compound remained in the system at each time point was detected by using LC/MS, the absolute value k of the slope was measured by plotting the natural logarithm of the percentage of the remaining amount of the compound over time, and the calculation was performed according to the formula: T1/2 (half-life)=ln2/k=0.693/k.
(In general: Liver microsomes are vesicles of endoplasmic reticulum, rich in cytochrome P450 enzymes.)

The conditions of series [5]: NCT02704403; cited from earlier work.

Turning to `Cc1cc(CN2C(=O)CN(c3ccc(F)c(Cl)c3)C2=O)cc(C)c1OC(C)(C)C(=O)O` [Compound 105], the half-maximal effective concentration (EC50) in series [1] was found to be 21.9 nM; in series [2], 40.5 nM; in series [3], 165 nM.

As for `Cc1cc(CN2C(=O)CN(c3cccc(Cl)c3)C2=O)cc(C)c1OC(C)(C)C(=O)O` [Compound 107], the values for the EC50 in series [1], in series [2] and in series [3] were 105 nM, 47.5 nM and 652 nM, respectively.

With `Cc1cc(CN2C(=O)CN(c3cccc(OC(F)(F)F)c3)C2=O)cc(C)c1OC(C)(C)C(=O)O` [Compound 109], the concentration giving a half-maximal response (EC50) in series [1] worked out at 31.7 nM; in series [2], 15.1 nM; in series [3], 363 nM.

As for `CSc1ccc(C(=O)/C=C/c2cc(C)c(OC(C)(C)C(=O)O)c(C)c2)cc1` [GFT505, Elafibranor, reference compound], in series [1], the EC50 worked out at 820 nM. For the same compound, in series [3] (Cos-7 cells, Gal4-PPARγ (LBD), Rosiglitazone 1 μM = 100%, 16 h), the EC50 turned out to be 1840 nM. In series [4], this compound returned a CLint scaled of 116 mL/min/kg and a half-life of 15 min. Also, the “interim analysis result of phase III clinical trial against NASH” value in series [5] was “substantially ineffective”.
